Measured values reported in patent US20100113484A1, “TREATING AGENT OF UROPATHY” (ASKA PHARMACEUTICAL CO., LTD., priority 2006, published 2010).

Assays:
[1] = target: T1, human recombinant PDE9 protein (Homo sapiens, UniProt O76083); assay: Measurement of PDE9-inhibiting activity ([3H]-cGMP hydrolysis); type: biochemical; details: Tables A and C; read-out: Inhibiting Activity (IC50 value) PDE9
T1 construct: made in house; host or cells: COS-1 cells, transient transfection with pcDNA 3.1 (+); supernatant of the homogenate, not purified
Experimental: Based on the base sequence of hsPDE9A1 registered with GenBank database (accession No.: AF048837), hsPDE9A1 fragment was amplified by polymerase chain reaction under the following conditions, using the following sequence (Amasham Pharmacia Biotech) as the primer and Human Prostate […] cDNA library (CLONTECH) as the template DNA, with Pfu Turbo DNA polymerase ([…]):
PCR condition: [95° C., 5 min]×1 cycle, [(95° C., 1 min), (58° C., 2 min), (72° C., 3 min)]×25 cycles, [72° C., 10 min]×1 cycle
Thus obtained hsPDE9A1 fragment was given a restricted enzymatic treatment with NheI and NotI, and thereafter inserted into pcDNA 3.1 (+) expression vector (Invitrogen) to let it serve as a human PDE9 expression vector.
(§1) Human PDE9 expression vector-transformed Escherichia coli was mass incubated to produce a large amount of human PDE9 expression vector, which was transiently transfected into COS-1 cells, with LIPOFECTAMINE 2000 Reagent (GIBCO). The cells were homogenized in ice-cooled buffer A (40 mmol/L Tris-HCl, pH7.5, 15 mmol/L benzamidine, 15 mmol/L 2-mercaptoethanol, 1 μg/mL Pepstatin A, 1 μg/mL Leupeptin, 5 mmol/L EDTA) and centrifuged at 4° C., 14,000×g for 10 minutes. The supernatant was isolated to provide human recombinant PDE9 protein solution.
This mixed solution was incubated at 30° C. for 30 minutes and the enzymatic reaction of PDE9 was terminated by heating the system in boiling water for 90 seconds. Returning the system to room temperature, 50 μL of Snake venom (SIGMA: 1 mg/mL) was added, followed by 10 minutes' incubation at 30° C., to convert the [^3H]-5′-GMP produced in the previous reaction to [^3H]-guanosine. […] Thereafter [^3H]-guanosine was eluted with 3 mL of 3 mol/L aqueous ammonia and its radiation activity was measured with liquid scintillation counter.
PDE9 inhibition of the tested compound can be calculated by the following formula: […]
From the percent inhibition at various concentration levels of each tested compound, its IC50 value against PDE9 can be determined.

[2] = target: T2, human recombinant PDE5 protein (Homo sapiens, UniProt O76074); assay: Measurement of PDE5-inhibiting activity; type: biochemical; details: Tables A and C; read-out: Inhibiting Activity (IC50 value) PDE5
T2 construct: made in house; host or cells: COS-1 cells, transient transfection with pcDNA 3.1 (+); supernatant of the homogenate, not purified
Experimental: PCR condition: [94° C., 2 min]×1 cycle, [(94° C., 30 sec), (65° C., 30 sec), (68° C., 3 min)]×25 cycles, [68° C., 6 min]×1 cycle
Thus obtained hsPDE5A1 fragment was given a restricted enzymatic treatment with XBaI and EcoRI, and thereafter inserted into pcDNA 3.1 (+) expression vector (Invitrogen) to let it serve as a human PDE5 expression vector.
as §1, with “PDE5” for “PDE9”, “A” for “A (40 mmol/L Tris-HCl, pH7.5, 15 mmol/L benzamidine, 15 mmol/L 2-mercaptoethanol, 1 μg/mL Pepstatin A, 1 μg/mL Leupeptin, 5 mmol/L EDTA)”

[3] = tested on: partial urethra obstruction model in guinea pigs; assay: Dysuria pathological model: partial urethra obstruction model, cystometry; type: in vivo, Hartley female guinea pigs; details: guinea pig, i.v.
Experimental: Three-four weeks old Hartley female guinea pigs (Japan SLC, Inc.) were given celiotomy under anesthesia with pentobarbital (30 mg/kg i.p.) and in their urethra to the peripheral side by 1-2 mm from the bladder neck, each a polyethylene tube of 1.4 mm in width and 2.0 mm in inner diameter was placed. After closing the wound, the guinea pigs were bred for at least 3 weeks to produce partial urethra obstruction model in guinea pigs in which occurrence of intravesical pressure rise not accompanied by micturition (uninhibited contraction) and residual urine were observed.
The model was catheterized under anesthesia with urethane (1 g/kg i.p.) at the apex of urinary bladder and right jugular vein for cystometrography and intravenous administration, respectively. The other end of the bladder catheter was connected to a pressure transducer and infusion pump via a three way stop-cock, and physiological saline was continuously infused into the bladder through the infusion pump at a rate of 0.4 mL/min to induce micturition reflex. Immediately after the micturition reflex was induced, infusion of physiological saline into the bladder was stopped. The intravesical pressure at the time the micturition reflex was induced was measured with the pressure transducer, and the obtained cystometrogram was recorded with pen recorder. The urine voided was collected with disposable type weighing dish and its weight was measured. Further the physiological saline remained in the bladder was sucked with syringe via the bladder catheter and the residual urine volume was measured. The operations of suspending the infusion of physiological saline upon induction of micturition reflex, and about 1 minute thereafter resuming the infusion of physiological saline to induce micturition reflex were repeated plural times (generally 4 times) to stabilize the micturition reflex.
After stabilizing the micturition reflex, a compound solution (prepared by dissolving the compound or methanesulfonic acid salt thereof in DMSO and diluting it with physiological saline or distilled water) or physiological saline was administered into the vein at a volume of 10 mL/kg over 4 minutes, and simultaneously the above-described micturition reflex operations were repeated until 30 minutes passed after initiation of the administration, while measuring the intravesical pressure and the volumes of micturition and residual urine. Also the frequency of uninhibited contraction occurrence during the above-described operations was recorded.

T1 sequence (O76083 whole entry): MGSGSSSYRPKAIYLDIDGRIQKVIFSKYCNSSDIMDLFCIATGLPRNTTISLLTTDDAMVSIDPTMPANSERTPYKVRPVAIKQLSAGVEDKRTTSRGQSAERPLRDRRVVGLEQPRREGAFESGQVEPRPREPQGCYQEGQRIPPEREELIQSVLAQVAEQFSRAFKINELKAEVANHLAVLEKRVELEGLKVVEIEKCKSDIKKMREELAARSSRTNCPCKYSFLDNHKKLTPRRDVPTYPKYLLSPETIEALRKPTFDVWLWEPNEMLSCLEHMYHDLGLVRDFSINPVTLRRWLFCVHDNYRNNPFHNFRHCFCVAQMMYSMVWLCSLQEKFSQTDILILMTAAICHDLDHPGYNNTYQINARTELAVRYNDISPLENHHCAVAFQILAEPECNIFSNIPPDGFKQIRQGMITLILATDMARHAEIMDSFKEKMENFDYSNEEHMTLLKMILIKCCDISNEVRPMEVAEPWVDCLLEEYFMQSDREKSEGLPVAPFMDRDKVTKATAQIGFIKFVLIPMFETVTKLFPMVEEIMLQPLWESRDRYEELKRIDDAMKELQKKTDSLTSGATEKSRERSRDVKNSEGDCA

SMILES | IC50 [1] | IC50 [2] | Frequency of occurrence of uninhibited contraction after administration ([3]; 0.3 mg/kg) | Frequency of occurrence of uninhibited contraction volume change ([3]; 0.3 mg/kg) | Residual urine volume after administration ([3]; 0.3 mg/kg) | Residual urine volume volume change ([3]; 0.3 mg/kg) | Frequency of occurrence of uninhibited contraction after administration ([3]; 3 mg/kg) | Frequency of occurrence of uninhibited contraction volume change ([3]; 3 mg/kg) | Residual urine volume after administration ([3]; 3 mg/kg) | Residual urine volume volume change ([3]; 3 mg/kg) | Frequency of occurrence of uninhibited contraction after administration ([3]; 10 mg/kg) | Frequency of occurrence of uninhibited contraction volume change ([3]; 10 mg/kg) | Residual urine volume after administration ([3]; 10 mg/kg) | Residual urine volume volume change ([3]; 10 mg/kg) | Frequency of occurrence of uninhibited contraction after administration ([3]; 1 mg/kg) | Frequency of occurrence of uninhibited contraction volume change ([3]; 1 mg/kg) | Residual urine volume after administration ([3]; 1 mg/kg) | Residual urine volume volume change ([3]; 1 mg/kg)
Cc1c(C(=O)O)sc2nc(Cc3cccc(Cl)c3)[nH]c(=O)c12 [A-4, 2-(3-Chlorobenzyl)-5-methyl-4-oxo-3,4-dihydrothieno[2,3-d]-pyrimidine-6-carboxylic acid] | 30 nM | 6770 nM | 0.80 times/min | −0.36 times/min | 1.08 mL | +0.13 mL | 0.49 times/min | −0.67 times/min | 1.11 mL | +0.16 mL | 0.60 times/min | −0.56 times/min | 0.95 mL | 0.00 mL |  |  |  | 
Cc1c(C(=O)O)sc2nc(Cc3ccc(Cl)c(Cl)c3)[nH]c(=O)c12 [A-7, 2-(3,4-Dichlorobenzyl)-5-methyl-4-oxo-3,4-dihydrothieno-[2,3-d]pyrimidine-6-carboxylic acid] | 38 nM | 915 nM |  |  |  |  | 0.77 times/min | −0.39 times/min | 1.03 mL | -0.30 mL | 0.64 times/min | −0.47 times/min | 0.64 mL | -0.42 mL | 0.79 times/min | −0.17 times/min | 0.86 mL | +0.04 mL
O=C(O)c1cc2c(=O)[nH]c(CC3=CCCC3)nc2s1 [A-21, 2-(Cyclopent-1-enylmethyl)-4-oxo-3,4-dihydrothieno[2,3-d]-pyrimidine-6-carboxylic acid] | 22 nM | 12100 nM | 0.55 times/min | −0.53 times/min | 1.02 mL | -0.52 mL | 0.78 times/min | −0.66 times/min | 0.88 mL | -0.49 mL | 0.83 times/min | −0.74 times/min | 0.62 mL | -1.06 mL |  |  |  | 
Cc1c(C(=O)O)sc2nc(Cc3cccc(Cl)c3)[nH]c(=S)c12 [A-26, 2-(3-Chlorobenzyl)-5-methyl-4-thioxo-3,4-dihydrothieno-[2,3-d]pyrimidine-6-carboxylic acid] | 5 nM | 1110 nM | 1.02 times/min | −0.10 times/min | 0.91 mL | -0.11 mL | 0.76 times/min | −0.36 times/min | 0.27 mL | -0.75 mL | 0.59 times/min | −0.53 times/min | 0.48 mL | -0.54 mL |  |  |  | 
